Values quoted from earlier work in patent publication US20100323044A1, “ABNORMAL PROTEIN REMOVING METHOD” (FANCL CORPORATION, priority 2004, published 2010).

Settings: assumed, J Nutr 134 (2004); broken down by intestinal bacteria into soyasapogenol B, then absorbed

- absorption in the human intestines: not absorbed directly
SMILES: C[C@@H]1O[C@@H](O[C@H]2[C@H](O[C@H]3[C@H](O[C@H]4CC[C@@]5(C)[C@@H](CC[C@]6(C)[C@@H]5CC=C5[C@@H]7CC(C)(C)C[C@@H](O)[C@]7(C)CC[C@]56C)[C@@]4(C)CO)O[C@H](C(=O)O)[C@@H](O)[C@@H]3O)O[C@H](CO)[C@H](O)[C@@H]2O)[C@H](O)[C@H](O)[C@H]1O [soyasaponin I]
